What was measured:
Sprague Dawley rats = experiment: Urinary phosphate excretion in rats fed a high phosphorus diet (OLC+Tenapanor Combo Study, Example 1); assay type: in vivo, rat; details: Days 9 to 11
Description: FIG. 1. Represents the Study Design of the OLC+Tenapanor Combo Study described in Example 1. The study consisted of acclimatization, randomization, in vivo study period, and termination. Animals were acclimated from Day-7 to Day-4. On study Day-1, animals were randomized into eight groups: one vehicle; one tenapanor (0.15 mg/kg); three oxylanthanum carbonate (OLC) (0.75%, 1.5%, and 3%); and three combination treatment with OLC and tenapanor (OLC 0.75%, 1.5%, and 3%+tenapanor 0.15 mg/kg). On study Day 1, animals were switched to high phosphorus diets. Animals were euthanized on Day 11 two hours post last dose. Legend: 1 Body weight and food intake were measured daily from study Day-3 until termination. 2 During the in vivo study period (Days 1 to 11), vehicle and tenapanor were dosed orally twice/day whereas OLC was incorporated into the diets. 3 Urine samples were collected on Days 9, 10, and 11 for phosphate measurements and blood samples were collected for serum phosphate and sodium measurements on day 11 after the final urine sampling. Sixty-four male Sprague Dawley rats of 9 weeks old (11 weeks by the end of the study) were fed standard chow one week prior to study start. On study day-1, animals were randomized into 8 study groups (n=8): 1) vehicle, 2) tenapanor 0.15 mg/kg, 3) Vehicle+OLC 0.75%, 4) Vehicle+OLC 1.5%, 5) Vehicle+OLC 3%, 6) tenapanor 0.15 mg/kg+OLC 0.75%, 7) tenapanor 0.15 mg/kg+OLC 1.5%, and 8) tenapanor 0.15 mg/kg+OLC 3%. Vehicle and tenapanor were dosed PO twice/day whereas OLC was incorporated into the diets. On study Day 1, all animals were switched to high phosphorus diets consisting of chow spiked with 0.4% inorganic phosphorus [(1:1 sodium:potassium salt-wt./wt.), 1.1% total phosphorus content] for the rest of the study. Body weight and food intake were measured daily from study Day-3 until termination. 24-hour urine samples were collected using metabolic cages on day 9, 10, and 11 for urinary P measurements. Mean urinary phosphate excretion for each animal from Days 9 to 11 were averaged by treatment group. While we examined effects separately in each OLC dose group, our primary analyses compared pooled results in the three OLC dose groups combined. We compared pooled results using one-way ANOVA followed by Games-Howell test, and individual groups with vehicle using one-way ANOVA followed by Dunnett's multiple comparison test. A threshold of p<0.05 was used to determine significant differences between groups. Statistical Package for the Social Sciences (SPSS) was used for all statistical analyses. The Bliss model of independence was employed to determine if the combination of OLC and tenapanor was independent, synergistic, or antagonistic. (Zhao W, et al. J Biomol Screen June 2014; 19 (5): 817-821). The Bliss model compares the predicted combination response, calculated using the complete additivity of probability theory based on the observed effect of each individual agent administered alone, with the observed effect of combination treatment. The mean percentage reduction in urinary phosphate excretion relative to vehicle by treatment group was calculated by averaging urinary phosphate excretion for each animal from Days 9 to 11. Paired t-tests were conducted to assess the statistical significance between observed and predicted results. 2-tailed p-values<0.05 are considered to be statistically significant.

[1] = Body weight and food intake in the OLC+Tenapanor Combo Study (Example 1); details: rat, in vivo
Description: FIG. 1. Represents the Study Design of the OLC+Tenapanor Combo Study described in Example 1. The study consisted of acclimatization, randomization, in vivo study period, and termination. Animals were acclimated from Day-7 to Day-4. On study Day-1, animals were randomized into eight groups: one vehicle; one tenapanor (0.15 mg/kg); three oxylanthanum carbonate (OLC) (0.75%, 1.5%, and 3%); and three combination treatment with OLC and tenapanor (OLC 0.75%, 1.5%, and 3%+tenapanor 0.15 mg/kg). On study Day 1, animals were switched to high phosphorus diets. Animals were euthanized on Day 11 two hours post last dose. Legend: 1 Body weight and food intake were measured daily from study Day-3 until termination. 2 During the in vivo study period (Days 1 to 11), vehicle and tenapanor were dosed orally twice/day whereas OLC was incorporated into the diets. 3 Urine samples were collected on Days 9, 10, and 11 for phosphate measurements and blood samples were collected for serum phosphate and sodium measurements on day 11 after the final urine sampling. Sixty-four male Sprague Dawley rats of 9 weeks old (11 weeks by the end of the study) were fed standard chow one week prior to study start. […] Body weight and food intake were measured daily from study Day-3 until termination. […] The mean body weight (FIG. 2A) and food intake (FIG. 2B) were measured from Day 1 to 11.

[2] = clinical trials; % of patients; cited from earlier work
[3] = Games-Howell post-hoc, OLC = average of 0.75%, 1.5%, 3% in chow, tenapanor 0.15 mg/kg/po/bid

SMILES: CN1Cc2c(Cl)cc(Cl)cc2[C@H](c2cccc(S(=O)(=O)NCCOCCOCCNC(=O)NCCCCNC(=O)NCCOCCOCCNS(=O)(=O)c3cccc([C@@H]4CN(C)Cc5c(Cl)cc(Cl)cc54)c3)c2)C1.Cl.Cl [Tenapanor, 12,15-Dioxa-2,7,9-triazaheptadecanamide, 17-[[[3-[(4S)-6,8-dichloro-1,2,3,4-tetrahydro-2-methyl-4-isoquinolinyl]phenyl]sulphonyl]amino]-N-[2-[2-[2-[[[3-[(4S)-6,8-dichloro-1,2,3,4-tetrahydro-2-methyl-4-isoquinolinyl]phenyl]sulphonyl]amino]ethoxy]ethoxy]ethyl]-8-oxo-, hydrochloride (1:2)]
- mean urinary phosphate excretion lower compared to the vehicle group (Sprague Dawley rats; tenapanor 0.15 mg/kg PO bid, OLC pooled across 0.75, 1.5 and 3% in chow, n=8 per treatment group): 8.5 mg/day
- Mean Difference (A − B) in mean urinary phosphate excretion, Treatment Group (A) = Vehicle, (B) = labelled treatment (Sprague Dawley rats; [3]): 8.510 mg/day
- Mean Difference (A − B) in mean urinary phosphate excretion, Treatment Group (A) = labelled treatment, (B) = OLC (Sprague Dawley rats; [3]): 3.583 mg/day
- Mean Difference (A − B) in mean urinary phosphate excretion, Treatment Group (A) = labelled treatment, (B) = OLC + Tenapanor (Sprague Dawley rats; [3]): 19.543 mg/day
- Mean Difference (A − B) in mean urinary phosphate excretion, Treatment Group (A) = labelled treatment, (B) = Vehicle (Sprague Dawley rats; [3]): -8.510 mg/day
- food intake compared with vehicle [1]: not significantly affected
- diarrhea observed in patients taking tenapanor [2]: 53%

From US20250228891A1, “COMBINATIONS CONTAINING OXYLANTHANUM CARBONATE FOR TREATING HYPERPHOSPHATEMIA” (UNICYCIVE THERAPEUTICS, INC., priority 2024, published 2025)
